In ChEMBL document CHEMBL1151696 (Bioorg Med Chem, 2008):
The source made the active and inactive calls. No cut-off for these calls is given here.

Key:
[1] = tested on: Mammalian orthoreovirus 1; assay type: functional, organism-based
[2] = tested on: Trypanosoma brucei; assay: Trypanocidal activity against Trypanosoma brucei 427 blood stream at 5 ug/ml after 48 hrs by hemocytometer; assay type: functional, organism-based
[3] = tested on: Human alphaherpesvirus 1; assay type: functional, organism-based
[4] = target: Glutamate NMDA receptor; assay: (§1) Antagonist activity at NMDA receptor in cerebellar granule neurons assessed as inhibition of glutamate-induced increase in intracellular calcium concentration by fluorometric assay; assay type: functional, cell-based
[5] = target: Glutamate NMDA receptor; assay: (§2) Antagonist activity at NMDA receptor in cerebellar granule neurons assessed as inhibition of NMDA-induced increase in intracellular calcium concentration by fluorometric assay; assay type: functional, cell-based
[6] = tested on: Human alphaherpesvirus 2; assay type: functional, organism-based
[7] = tested on: Feline coronavirus; assay type: functional, organism-based
[8] = tested on: Human respirovirus 3; assay type: functional, organism-based
[9] = tested on: Respiratory syncytial virus; assay type: functional, organism-based
[10] = tested on: Vesicular stomatitis virus; assay type: functional, organism-based
[11] = tested on: Sindbis virus; assay type: functional, organism-based
[12] = tested on: Punta Toro virus; assay type: functional, organism-based
[13] = tested on: Coxsackievirus B4; assay type: functional, organism-based
[14] = organism: Rattus norvegicus; assay: Inhibition of [3H]dopamine uptake in Wistar rat striatum synaptosomes at 100 uM by scintillation spectrometry; assay type: functional, subcellular; set-up: scale not given: the % may be the effect or the level left
[15] = tested on: Trypanosoma brucei; assay: Trypanocidal activity against Trypanosoma brucei 427 blood stream after 48 hrs by hemocytometer; assay type: functional, organism-based; conditions: Trypanosoma brucei, 427, 48 h
[16] = tested on: Influenza A virus H3N2; assay type: functional, organism-based, Influenza A virus (A/Hong Kong/7/1987(H3N2)); conditions: MDCK
[17] = tested on: Influenza B virus; assay type: functional, organism-based; conditions: B/Hong Kong/05/1972, MDCK
[18] = Cytotoxicity against MDCK cells by MTS assay; assay type: cell-based, Canis lupus familiaris; conditions: dog
[19] = tested on: Influenza A virus; assay: microbe, parasite or virus in culture; conditions: A/Puerto Rico/8/1934(H1N1), MDCK
[20] = target: T1, Glutamate NMDA receptor (Rattus norvegicus) (UniProt P35439+Q00959+Q00960+Q00961+Q62645+Q8VHN2+Q9R1M7); assay: as §1; assay type: functional, cell-based
[21] = target: T1, Glutamate NMDA receptor (Rattus norvegicus); assay: as §2; assay type: functional, cell-based

SMILES | Activity [1] | Activity [3] | IC50 [4] [µM] | IC50 [5] [µM] | Activity [6] | Activity [7] | Activity [8] | Activity [9] | Activity [10] | Activity [11] | Activity [12] | Activity [13] | Activity [14] [%] | EC50 [16] [µM] | Activity [17] | MCC [18] [µM] | also measured
CN(C)C12CC3(C)CC1CC3(C)C2 | inactive | inactive | 185 | 153 | inactive | inactive | inactive | inactive | inactive | inactive | inactive | inactive | 75.2 | – | – | – | Activity [2]: inactive
CC(N)C12CC3(C)CC1CC3(C)C2 (stereo unspecified) | inactive | inactive | 94 | 37 | inactive | inactive | inactive | inactive | inactive | inactive | inactive | inactive | 72.2 | – | – | – | IC50 [15]: 6.02 µM; IC90 [15]: 9.48 µM
NC12CC3CC(CC1C3)C2 | – | – | > 500 | 92 | – | – | – | – | – | – | – | – | 84.9 | 26.5 | inactive | > 575 | EC50 [19]: 196 µM
CC12CC3CC1(C)CC3(CNCc1ccccc1)C2 | inactive | inactive | – | 47 | inactive | inactive | inactive | inactive | inactive | inactive | inactive | inactive | – | – | – | – | Activity [2]: inactive; Activity [20]: inactive
CC12CC3CC1(C)CC3(N(Cc1ccccc1)Cc1ccccc1)C2 | inactive | inactive | – | – | inactive | inactive | inactive | inactive | inactive | inactive | inactive | inactive | 74.3 | – | – | – | Activity [20]: inactive; Activity [21]: inactive
CC(N)C12CC3CC(CC(C3)C1)C2 (stereo unspecified) [RIMANTADINE] | – | – | – | – | – | – | – | – | – | – | – | – | – | 0.85 | inactive | > 100 | IC90 [15]: 14 µM
CC12CC3CC1(C)CC3(CN)C2 | inactive | inactive | > 500 | 128 | inactive | inactive | inactive | inactive | inactive | inactive | inactive | inactive | 39.1 | – | – | – | Activity [2]: inactive
NCC12CC3CC(CC1C3)C2 | inactive | inactive | > 200 | > 200 | inactive | inactive | inactive | inactive | inactive | inactive | inactive | inactive | 50.1 | 52 | inactive | > 530 | EC50 [19]: 36 µM
CN(Cc1ccccc1)CC12CC3(C)CC1CC3(C)C2 | inactive | inactive | – | 160 | inactive | inactive | inactive | inactive | inactive | inactive | inactive | inactive | – | – | – | – | Activity [20]: inactive
CN(Cc1ccccc1)C12CC3CC(CC1C3)C2 | inactive | inactive | > 500 | 36 | inactive | inactive | inactive | inactive | inactive | inactive | inactive | inactive | 47.2 | – | – | – | –
CNC12CC3CC(CC1C3)C2 | inactive | inactive | 205 | 65 | inactive | inactive | inactive | inactive | inactive | inactive | inactive | inactive | 65.2 | – | – | – | –
NC12CC3CC(CC(C3)C1)C2 [AMANTADINE] | – | – | – | – | – | – | – | – | – | – | – | – | 47.4 | 2.7 | inactive | > 100 | IC50 [15]: > 130 µM; EC50 [19]: 77 µM
